These results are taken from the NIST ThermoML archive (doi:10.1016/j.fluid.2014.10.044).

The series can be described thus: xn = mol fraction of the nth substance listed. The note with it: 298.15 K, 101 kPa, Liquid; for viscosity: Concentric cylinders viscometry; for mass density: Vibrating tube method.

Structures are written as SMILES. ± gives the expanded uncertainty stated by the source.

On to `O=C(O)CO` [2-hydroxyethanoic acid] + C[N+](C)(C)CCO.[Cl-], for which, for the setting “x2 = 0.25”, the viscosity worked out at 311.21 ± 19 mPa·s and the mass density was determined as 1266.5 ± 0.9 kg/m3. Where the note is “x2 = 0.5”, the viscosity was determined as 803.76 ± 74 mPa·s and the mass density is 1197.6 ± 1 kg/m3.
